{
  "source": "patent US20100273700A1",
  "about": "“USE OF A PEPTIDE AS A THERAPEUTIC AGENT” (priority 2007, published 2010)",
  "key": {"[1]": {"tested_on": "CEM-SS cells", "experiment": "Cytotoxicity in the HIV-1 assay (MTS cell viability)", "details": "CEM-SS cells plus peptide only; peptide 10 micrograms per ml; MTS"}, "[2]": {"tested_on": "hepatitis B virus (HBV) ayw strain in HepG2-2.2.15 cells", "experiment": "HBV experimental assay system (secreted HBV DNA, TaqMan PCR)", "type": "cell-based", "details": "test peptide 10 micrograms per ml; six days; HBV DNA in supernatant"}, "[3]": {"experiment": "Cytotoxicity in the HBV assay (dye uptake cell viability)", "type": "cell-based", "details": "human; HepG2-2.2.15 cells; test peptide 10 micrograms per ml; dye uptake assay (% cell control)"}, "[4]": {"tested_on": "HCMV strain AD169", "experiment": "HCMV plaque reduction assay", "type": "cell-based", "details": "MRC-5 cells; peptide 10 micrograms per ml; 7-10 days", "description": "Ganciclovir was used as positive control."}, "[5]": {"tested_on": "MRSA", "experiment": "Methicillin Resistant Staphylococcus Aureus (MRSA) assay", "type": "cell-based", "details": "peptide 10 micrograms per ml, read visually"}, "[6]": {"tested_on": "Pseudomonas aeruginosa", "experiment": "Pseudomonas aeruginosa assay", "type": "cell-based", "details": "peptide 10 micrograms per ml, read visually"}, "[7]": {"tested_on": "Streptococcus pneumoniae", "experiment": "Streptococcus pneumoniae assay", "type": "cell-based", "details": "peptide 10 micrograms per ml, read visually", "description": "Results from Streptococcus pneumoniae assay:"}, "[8]": {"tested_on": "A549 cells", "experiment": "Propidium iodide cell cycle assay", "type": "cell-based, Human", "details": "10 micrograms per ml, 24 hours, FACS"}, "[9]": {"tested_on": "Human Peripheral Blood Mononuclear Cells (PBMC)", "experiment": "T cell proliferation assay (PHA, 3H-thymidine)", "type": "cell-based", "details": "10 micrograms per ml, 3H-thymidine incorporation"}, "[10]": {"tested_on": "Human Peripheral Blood Mononuclear Cells (PBMC)", "experiment": "B cell proliferation assay (SAC plus Interleukin-2, 3H-thymidine)", "type": "cell-based", "details": "10 micrograms per ml, 3H-thymidine incorporation"}, "[11]": {"tested_on": "RAW 264.7 cells", "experiment": "Phagocytosis assay (Fluorescein-labeled Escherichia coli)", "type": "cell-based, Mouse", "details": "10 micrograms per ml, flow cytometry"}, "[12]": {"tested_on": "A549 cells", "experiment": "Apoptosis induction assay (Annexin-5)", "type": "cell-based, Human", "details": "24 hours exposure"}, "[13]": {"tested_on": "A549 cells", "experiment": "Apoptosis prevention assay (C2 ceramide, Annexin-5)", "type": "cell-based, Human", "details": "A549 cells pretreated 30 min, 10 micrograms per ml"}, "[14]": {"tested_on": "Tumor Necrosis Factor-α (TNF-α)", "experiment": "Th1/Th2 cytokine profiling assay: TNF-α", "type": "cell-based, Balb/c mice", "details": "Ovalbumin-restimulated spleen cells; 10 micrograms per ml; 72 hours"}, "[15]": {"tested_on": "Interferon-γ (IFN-γ)", "experiment": "Th1/Th2 cytokine profiling assay: IFN-γ", "type": "cell-based, Balb/c mice", "details": "Ovalbumin-restimulated spleen cells; 10 micrograms per ml; 72 hours"}, "[16]": {"tested_on": "Interleukin-2 (IL-2)", "experiment": "Th1/Th2 cytokine profiling assay: IL-2", "type": "cell-based, Balb/c mice", "details": "Ovalbumin-restimulated spleen cells; 10 micrograms per ml; 72 hours"}, "[17]": {"tested_on": "Interleukin-4 (IL-4)", "experiment": "Th1/Th2 cytokine profiling assay: IL-4", "type": "cell-based, Balb/c mice", "details": "Ovalbumin-restimulated spleen cells; 10 micrograms per ml; 72 hours"}, "[18]": {"tested_on": "Interleukin-5 (IL-5)", "experiment": "Th1/Th2 cytokine profiling assay: IL-5", "type": "cell-based, Balb/c mice", "details": "Ovalbumin-restimulated spleen cells; 10 micrograms per ml; 72 hours"}, "[19]": {"tested_on": "TNF alpha", "experiment": "TNF alpha production assay (LPS-stimulated macrophages, ELISA)", "type": "cell-based, human", "details": "10 micrograms per ml, lipopolysaccharide 200 ng/ml, overnight", "description": "Not stimulated macrophages served as negative background control."}, "[20]": {"tested_on": "Primary Human endothelial cells (HUVEC)", "experiment": "Endothelial cell migration assay", "type": "cell-based", "details": "10 micrograms per ml, 22 hours"}, "[21]": {"tested_on": "HUVEC", "experiment": "Endothelial tube formation assay", "type": "cell-based, Human", "details": "10 micrograms per ml, 20 hours", "description": "Positive control was vehicle only."}, "[22]": {"experiment": "Cytotoxicity testing in MRC-5 cells (CellTiter 96)", "details": "human, MRC-5 cells (embryonal lung fibroblasts)"}, "[23]": {"experiment": "Cytotoxicity in the HIV-1 assay (MTS cell viability)", "details": "human, CEM-SS cells (uninfected, cells plus peptide only)"}},
  "data": [
    {"compound": "Cc1cn([C@H]2C[C@H](N=[N+]=[N-])[C@@H](CO)O2)c(=O)[nH]c1=O", "note": "[AZT, reference compound]", "values": [
      {"measurement": "% Cell viability", "setting": "[1]", "result": 97, "unit": "%"}
    ]},
    {"compound": "CC(C)C[C@H](NC(=O)[C@H](Cc1ccccc1)NC(=O)CNC(=O)CNC(=O)[C@@H](N)Cc1ccc(O)cc1)C(=O)N[C@@H](CCCNC(=N)N)C(=O)N[C@@H](CCCNC(=N)N)C(=O)N[C@@H](CCC(N)=O)C(=O)N[C@@H](Cc1ccccc1)C(=O)N[C@@H](CCCCN)C(=O)N[C@H](C(=O)N[C@H](C(=O)N[C@H](C(=O)O)[C@@H](C)O)C(C)C)C(C)C", "note": "[Dynorphin B]", "values": [
      {"measurement": "% inhibition of HBV replication in HEP G2 cells", "setting": "[2]", "result": 45.7, "unit": "%"},
      {"measurement": "viability at 144 h, 10 micrograms per ml", "setting": "[3]", "result": 89.7, "unit": "%"},
      {"measurement": "% plaque reduction", "setting": "[4]", "result": 1.0, "unit": "%"},
      {"measurement": "% inhibition", "setting": "[5]", "result": 0.0, "unit": "%"},
      {"measurement": "% inhibition", "setting": "[6]", "result": 0.0, "unit": "%"},
      {"measurement": "% inhibition", "setting": "[7]", "result": 100.0, "unit": "%"},
      {"measurement": "Cell cycle analysis G0/G1", "setting": "[8]", "result": 59.5},
      {"measurement": "Cell cycle analysis G2/M", "setting": "[8]", "result": 8.3},
      {"measurement": "Cell cycle analysis S", "setting": "[8]", "result": 32.2},
      {"measurement": "% of PHA induced control", "setting": "[9]", "result": 107.1, "unit": "%"},
      {"measurement": "% of SAC/IL2 induced control", "setting": "[10]", "result": 104.8, "unit": "%"},
      {"measurement": "% of control phagocytosis", "setting": "[11]", "result": 102.9, "unit": "%"},
      {"measurement": "% of induction", "setting": "[12]", "result": 1.2, "unit": "%"},
      {"measurement": "% prevention of ceramide induced apoptosis", "setting": "[13]", "result": 0.0, "unit": "%"},
      {"measurement": "TNF-a spleen cells; TH1 response (% of control)", "setting": "[14]", "result": "105.2 % of control"},
      {"measurement": "IFNγ spleen cells; TH1 response (% of control)", "setting": "[15]", "result": "73.9 % of control"},
      {"measurement": "IL-2 spleen cells (% of control)", "setting": "[16]", "result": "134.2 % of control"},
      {"measurement": "IL-4 spleen cells; TH2 response (% of control)", "setting": "[17]", "result": "208.2 % of control"},
      {"measurement": "IL-5 spleen cells; TH2 response (% of control)", "setting": "[18]", "result": "82.0 % of control"},
      {"measurement": "% of LPS induction", "setting": "[19]", "result": 97.8, "unit": "%"},
      {"measurement": "% inhibition of migration", "setting": "[20]", "result": 57, "unit": "%"},
      {"measurement": "% inhibition of tube formation", "setting": "[21]", "result": 11, "unit": "%"},
      {"measurement": "viability at 144 h", "setting": "[22]", "result": 100, "unit": "%"},
      {"measurement": "viability at 10 micrograms per ml", "setting": "[23]", "result": 37, "unit": "%"},
      {"measurement": "% Cell viability", "setting": "[1]", "result": "toxic"}
    ]}
  ]
}
